{
  "source": "paper PMC5218480",
  "about": "(PLoS ONE, 2017)",
  "system": "MV-4-11 cells",
  "experiment": "Gene expression microarray analysis (Affymetrix PrimeView) and GSEA",
  "assay_type": "cell-based, human",
  "parameters": "RFU PODN (11730768_x_at) / Fold change /veh PODN (11730768_x_at) / RFU LINC00158 (11744669_a_at) / Fold change /veh LINC00158 (11744669_a_at) / RFU DUSP10 (11751237_a_at) / Fold change /veh DUSP10 (11751237_a_at) / RFU ID3 (11757404_x_at) / Fold change /veh ID3 (11757404_x_at) / RFU PLEKHG5 (11737974_s_at) / Fold change /veh PLEKHG5 (11737974_s_at) / RFU LRRC4B (11730491_at) / Fold change /veh LRRC4B (11730491_at) / RFU GIMAP4 (11747438_a_at) / Fold change /veh GIMAP4 (11747438_a_at) / RFU KRT8 (11758183_x_at) / Fold change /veh KRT8 (11758183_x_at) / RFU CNN1 (11734310_a_at) / Fold change /veh CNN1 (11734310_a_at) / RFU VPS37D (11726825_at) / Fold change /veh VPS37D (11726825_at) / RFU C10orf10 (11716522_x_at) / Fold change /veh C10orf10 (11716522_x_at) / RFU KIR2DL2 /// KIR2DL4 /// KIR2DL5A /// KIR2DL5B /// KIR2DS1 /// KIR2DS2 /// KIR2DS3 /// KIR2DS4 /// KIR3DL3 /// KIR3DL3 /// KIR3DS1 (11738374_at) / Fold change /veh KIR2DL2 /// KIR2DL4 /// KIR2DL5A /// KIR2DL5B /// KIR2DS1 /// KIR2DS2 /// KIR2DS3 /// KIR2DS4 /// KIR3DL3 /// KIR3DL3 /// KIR3DS1 (11738374_at) / RFU C1QL1 (11718748_at) / Fold change /veh C1QL1 (11718748_at) / RFU TMPRSS4 (11747572_a_at) / Fold change /veh TMPRSS4 (11747572_a_at) / RFU HAMP (11756126_x_at) / Fold change /veh HAMP (11756126_x_at) / RFU RNFT2 (11725882_a_at) / Fold change /veh RNFT2 (11725882_a_at) / RFU NR4A2 (11747474_a_at) / Fold change /veh NR4A2 (11747474_a_at) / RFU ABCC12 (11746883_a_at) / Fold change /veh ABCC12 (11746883_a_at) / RFU TMEM136 (11760407_x_at) / Fold change /veh TMEM136 (11760407_x_at) / RFU CLDN22 /// WWC2 (11732394_at) / Fold change /veh CLDN22 /// WWC2 (11732394_at) / RFU HLA-DPB1 (11760878_x_at) / Fold change /veh HLA-DPB1 (11760878_x_at) / RFU SPINT1 (11716480_a_at) / Fold change /veh SPINT1 (11716480_a_at) / RFU GAP43 (11754022_s_at) / Fold change /veh GAP43 (11754022_s_at) / RFU A4GNT (11735810_at) / Fold change /veh A4GNT (11735810_at) / RFU PRB3 (11715151_x_at) / Fold change /veh PRB3 (11715151_x_at) / RFU TUBB4B (11761932_at) / Fold change /veh TUBB4B (11761932_at) / RFU CAPN14 (11732068_a_at) / Fold change /veh CAPN14 (11732068_a_at) / RFU TMCC2 (11721928_a_at) / Fold change /veh TMCC2 (11721928_a_at) / RFU IRGQ (11745062_a_at) / Fold change /veh IRGQ (11745062_a_at) / RFU FAM174B (11720279_a_at) / Fold change /veh FAM174B (11720279_a_at) / RFU TMPRSS4 (11748680_a_at) / Fold change /veh TMPRSS4 (11748680_a_at) / RFU FAM212B (11763350_a_at) / Fold change /veh FAM212B (11763350_a_at) / RFU PLEKHG5 (11743358_a_at) / Fold change /veh PLEKHG5 (11743358_a_at) / RFU ZSCAN30 (11745921_a_at) / Fold change /veh ZSCAN30 (11745921_a_at) / RFU CMKLR1 (11741424_a_at) / Fold change /veh CMKLR1 (11741424_a_at) / RFU LOC101060620 /// MAPK8IP1 (11723275_at) / Fold change /veh LOC101060620 /// MAPK8IP1 (11723275_at) / RFU SPTSSB (11747773_x_at) / Fold change /veh SPTSSB (11747773_x_at) / RFU PRSS12 (11739890_at) / Fold change /veh PRSS12 (11739890_at) / RFU BIN1 (11741810_x_at) / Fold change /veh BIN1 (11741810_x_at) / RFU WNT11 (11732464_a_at) / Fold change /veh WNT11 (11732464_a_at) / RFU C10orf10 (11716521_a_at) / Fold change /veh C10orf10 (11716521_a_at) / RFU C5orf56 (11738089_at) / Fold change /veh C5orf56 (11738089_at) / RFU CYB561 (11721691_x_at) / Fold change /veh CYB561 (11721691_x_at) / RFU ANKRD19P (11752326_a_at) / Fold change /veh ANKRD19P (11752326_a_at) / RFU OR2T12 /// OR2T33 /// OR2T8 (11738714_s_at) / Fold change /veh OR2T12 /// OR2T33 /// OR2T8 (11738714_s_at) / RFU VCAN (11748164_a_at) / Fold change /veh VCAN (11748164_a_at) / RFU JSRP1 (11732532_at) / Fold change /veh JSRP1 (11732532_at) / RFU KRTAP10-11 (11738290_x_at) / Fold change /veh KRTAP10-11 (11738290_x_at) / RFU MYO3A (11730013_a_at) / Fold change /veh MYO3A (11730013_a_at) / RFU EBF3 (11725865_a_at) / Fold change /veh EBF3 (11725865_a_at) / RFU CAMK2N1 (11719241_x_at) / Fold change /veh CAMK2N1 (11719241_x_at) / RFU C5orf56 (11738088_a_at) / Fold change /veh C5orf56 (11738088_a_at) / RFU OLFML3 (11715873_a_at) / Fold change /veh OLFML3 (11715873_a_at) / RFU LOC100653217 /// NTM (11731650_a_at) / Fold change /veh LOC100653217 /// NTM (11731650_a_at) / RFU MAPK11 (11762145_a_at) / Fold change /veh MAPK11 (11762145_a_at) / RFU FIZ1 (11724087_x_at) / Fold change /veh FIZ1 (11724087_x_at) / RFU OASL (11726364_x_at) / Fold change /veh OASL (11726364_x_at) / RFU SOX15 (11748057_x_at) / Fold change /veh SOX15 (11748057_x_at) / RFU CD79A (11719716_a_at) / Fold change /veh CD79A (11719716_a_at) / RFU HIST1H1D (11736915_at) / Fold change /veh HIST1H1D (11736915_at) / RFU CASKIN2 (11723855_a_at) / Fold change /veh CASKIN2 (11723855_a_at) / RFU LOC730098 (11760151_x_at) / Fold change /veh LOC730098 (11760151_x_at) / RFU OR4N2 (11742367_at) / Fold change /veh OR4N2 (11742367_at) / RFU PRRT2 (11749266_a_at) / Fold change /veh PRRT2 (11749266_a_at) / RFU SNX32 (11753110_a_at) / Fold change /veh SNX32 (11753110_a_at) / RFU CDHR5 (11726645_a_at) / Fold change /veh CDHR5 (11726645_a_at) / RFU RCAN1 (11760418_a_at) / Fold change /veh RCAN1 (11760418_a_at) / RFU FAM167A (11723789_a_at) / Fold change /veh FAM167A (11723789_a_at) / RFU FAM26E (11764081_at) / Fold change /veh FAM26E (11764081_at) / RFU ISYNA1 (11749810_s_at) / Fold change /veh ISYNA1 (11749810_s_at) / RFU ACY1 (11761880_at) / Fold change /veh ACY1 (11761880_at) / RFU 11764098_at / Fold change /veh 11764098_at / RFU SAMD14 (11745864_x_at) / Fold change /veh SAMD14 (11745864_x_at) / RFU NPB (11741838_a_at) / Fold change /veh NPB (11741838_a_at) / RFU TMPRSS6 (11731388_a_at) / Fold change /veh TMPRSS6 (11731388_a_at) / RFU KRTAP10-2 (11738614_at) / Fold change /veh KRTAP10-2 (11738614_at) / RFU ARHGAP8 /// PRR5-ARHGAP8 (11727945_x_at) / Fold change /veh ARHGAP8 /// PRR5-ARHGAP8 (11727945_x_at) / RFU KRTAP5-7 /// NADSYN1 (11734609_at) / Fold change /veh KRTAP5-7 /// NADSYN1 (11734609_at) / RFU RASL12 (11751679_a_at) / Fold change /veh RASL12 (11751679_a_at) / RFU CDKN2B (11736163_a_at) / Fold change /veh CDKN2B (11736163_a_at) / RFU PRF1 (11729649_at) / Fold change /veh PRF1 (11729649_at) / RFU, ZNF638 /// ZNF638-IT1 / Fold change vs veh, ZNF638 /// ZNF638-IT1 / RFU, PANK3 / Fold change vs veh, PANK3 / RFU, SH3YL1 / Fold change vs veh, SH3YL1 / RFU, ZEB2 / Fold change vs veh, ZEB2 / RFU, NRIP1 / Fold change vs veh, NRIP1 / RFU, PTTG1IP / Fold change vs veh, PTTG1IP / RFU, CAPN2 / Fold change vs veh, CAPN2 / RFU, MED14 / Fold change vs veh, MED14 / RFU, SNORA58 / Fold change vs veh, SNORA58 / RFU, C1orf63 / Fold change vs veh, C1orf63 / RFU, LRRFIP1 / Fold change vs veh, LRRFIP1 / RFU, NDUFAF7 / Fold change vs veh, NDUFAF7 / RFU, SLC12A2 / Fold change vs veh, SLC12A2 / RFU, IBTK / Fold change vs veh, IBTK / RFU, ESF1 / Fold change vs veh, ESF1 / Fold change vs veh, TMEM50B / RFU, TAOK1 / Fold change vs veh, TAOK1 / RFU, ACBD3 / Fold change vs veh, ACBD3 / RFU, TMA16 / Fold change vs veh, TMA16 / RFU, RWDD3 / Fold change vs veh, RWDD3 / RFU, BCAT1 / Fold change vs veh, BCAT1 / RFU, EDEM3 / Fold change vs veh, EDEM3 / RFU, TMEM33 / Fold change vs veh, TMEM33 / RFU, WDR75 / Fold change vs veh, WDR75 / RFU, AHCTF1 / Fold change vs veh, AHCTF1 / RFU, TFRC / Fold change vs veh, TFRC / RFU, ZDHHC17 / Fold change vs veh, ZDHHC17 / RFU, NOM1 / Fold change vs veh, NOM1 / RFU, ARL8B / Fold change vs veh, ARL8B / RFU, ZBTB11 / Fold change vs veh, ZBTB11 / RFU, TAMM41 / Fold change vs veh, TAMM41 / RFU, KIAA1704 /// LOC100996395 / Fold change vs veh, KIAA1704 /// LOC100996395 / RFU, ING1 / Fold change vs veh, ING1 / RFU, TRMT61B / Fold change vs veh, TRMT61B / RFU, FUBP3 / Fold change vs veh, FUBP3 / RFU, TP53 / Fold change vs veh, TP53 / RFU, TNKS2 / Fold change vs veh, TNKS2 / RFU, ZFP14 / Fold change vs veh, ZFP14 / RFU, ACTR2 / Fold change vs veh, ACTR2 / RFU, PPP3R1 / Fold change vs veh, PPP3R1 / RFU, PIK3R1 / Fold change vs veh, PIK3R1 / RFU, HNRNPA1 / Fold change vs veh, HNRNPA1 / RFU, RNF170 / Fold change vs veh, RNF170 / RFU, ZNF28 / Fold change vs veh, ZNF28 / RFU, RNGTT / Fold change vs veh, RNGTT / RFU, OGT / Fold change vs veh, OGT / RFU, BRD1 / Fold change vs veh, BRD1 / RFU, MARS / Fold change vs veh, MARS / RFU, ZNF655 / Fold change vs veh, ZNF655 / RFU, FAHD1 / Fold change vs veh, FAHD1 / RFU, BDP1 / Fold change vs veh, BDP1 / RFU, LRRCC1 / Fold change vs veh, LRRCC1 / RFU, ARID1A / Fold change vs veh, ARID1A / RFU, ZNF146 / Fold change vs veh, ZNF146 / RFU, ZNF330 / Fold change vs veh, ZNF330 / RFU, GPN3 / Fold change vs veh, GPN3 / RFU, C9orf123 / Fold change vs veh, C9orf123 / RFU, N4BP2L2 / Fold change vs veh, N4BP2L2 / RFU, ARFIP1 / Fold change vs veh, ARFIP1 / RFU, FAM179B / Fold change vs veh, FAM179B / RFU, BCL10 / Fold change vs veh, BCL10 / RFU, UHRF1BP1L / Fold change vs veh, UHRF1BP1L / RFU, BET1 / Fold change vs veh, BET1 / RFU, CNOT2 / Fold change vs veh, CNOT2 / RFU, ZNF268 / Fold change vs veh, ZNF268 / Fold change vs veh, ZNF507 / RFU, DGCR2 / Fold change vs veh, DGCR2 / RFU, WDSUB1 / Fold change vs veh, WDSUB1 / Fold change vs veh, HSP90B1 /// MIR3652 / RFU, ADSS / Fold change vs veh, ADSS / RFU, GK / Fold change vs veh, GK / RFU, ZNF148 / Fold change vs veh, ZNF148 / RFU, TAF9 / Fold change vs veh, TAF9 / RFU, SLC1A5 / Fold change vs veh, SLC1A5 / RFU, SLMO2 / Fold change vs veh, SLMO2 / RFU, ABCC4 / Fold change vs veh, ABCC4 / RFU, LOC101060439 /// RAP1B / Fold change vs veh, LOC101060439 /// RAP1B / RFU, RFX7 / Fold change vs veh, RFX7 / RFU, GTPBP10 / Fold change vs veh, GTPBP10 / RFU, CNEP1R1 / Fold change vs veh, CNEP1R1 / RFU, BIVM-ERCC5 /// ERCC5 / Fold change vs veh, BIVM-ERCC5 /// ERCC5 / RFU, ILF3 / Fold change vs veh, ILF3 / RFU 11762660_at / Fold change /veh 11762660_at / RFU VCAN (11757783_s_at) / Fold change /veh VCAN (11757783_s_at) / RFU DDX43 (11728927_at) / Fold change /veh DDX43 (11728927_at) / RFU KRT8 (11758188_x_at) / Fold change /veh KRT8 (11758188_x_at) / RFU NKD1 (11759106_at) / Fold change /veh NKD1 (11759106_at) / RFU SRD5A1 (11742802_a_at) / Fold change /veh SRD5A1 (11742802_a_at) / RFU TPSAB1 /// TPSB2 (11721975_s_at) / Fold change /veh TPSAB1 /// TPSB2 (11721975_s_at) / RFU GSTM3 (11746129_a_at) / Fold change /veh GSTM3 (11746129_a_at) / RFU IL23R (11737362_x_at) / Fold change /veh IL23R (11737362_x_at) / RFU TMEM51 (11727254_a_at) / Fold change /veh TMEM51 (11727254_a_at) / RFU PIWIL2 (11732686_x_at) / Fold change /veh PIWIL2 (11732686_x_at) / RFU ORM1 (11744905_x_at) / Fold change /veh ORM1 (11744905_x_at) / RFU CCDC152 (11743942_at) / Fold change /veh CCDC152 (11743942_at) / RFU ECM1 (11717891_a_at) / Fold change /veh ECM1 (11717891_a_at) / RFU IL23R (11748794_a_at) / Fold change /veh IL23R (11748794_a_at) / RFU TNFAIP8L3 (11732012_x_at) / Fold change /veh TNFAIP8L3 (11732012_x_at) / RFU MBOAT4 (11741988_at) / Fold change /veh MBOAT4 (11741988_at) / RFU 11764193_at / Fold change /veh 11764193_at / RFU TMEM53 (11763286_at) / Fold change /veh TMEM53 (11763286_at) / RFU MAGEB2 (11727129_at) / Fold change /veh MAGEB2 (11727129_at) / RFU TMEM200A (11744735_a_at) / Fold change /veh TMEM200A (11744735_a_at) / RFU CCDC152 (11751479_a_at) / Fold change /veh CCDC152 (11751479_a_at) / RFU FAM211A (11726209_a_at) / Fold change /veh FAM211A (11726209_a_at) / RFU RGS16 (11746705_a_at) / Fold change /veh RGS16 (11746705_a_at) / RFU VCAN (11755009_s_at) / Fold change /veh VCAN (11755009_s_at) / RFU RHOB (11743442_s_at) / Fold change /veh RHOB (11743442_s_at) / RFU RGS16 (11720943_a_at) / Fold change /veh RGS16 (11720943_a_at) / RFU RGS16 (11720944_at) / Fold change /veh RGS16 (11720944_at) / RFU, VPS4B / Fold change vs veh, VPS4B / RFU, CREB1 / Fold change vs veh, CREB1 / RFU, DNAJC13 / Fold change vs veh, DNAJC13 / RFU, GNAQ / Fold change vs veh, GNAQ / RFU, CDK5R1 / Fold change vs veh, CDK5R1 / RFU, ZRANB3 / Fold change vs veh, ZRANB3 / RFU, CUL4A / Fold change vs veh, CUL4A / RFU, CCNY / Fold change vs veh, CCNY / RFU, UFL1 / Fold change vs veh, UFL1 / RFU, COG3 / Fold change vs veh, COG3 / RFU, DIAPH2 / Fold change vs veh, DIAPH2 / RFU, SKA2 / Fold change vs veh, SKA2 / RFU, AFF3 / Fold change vs veh, AFF3 / RFU, LMF1 / Fold change vs veh, LMF1 / RFU, IPO11 / Fold change vs veh, IPO11 / RFU, DFFB / Fold change vs veh, DFFB / RFU, FOXP1 / Fold change vs veh, FOXP1 / RFU, CARD8 / Fold change vs veh, CARD8 / RFU, STRN3 / Fold change vs veh, STRN3 / RFU, ADK / Fold change vs veh, ADK / RFU, RASSF2 / Fold change vs veh, RASSF2 / RFU, WIPF1 / Fold change vs veh, WIPF1 / RFU, LARP1B / Fold change vs veh, LARP1B / RFU, RASA1 / Fold change vs veh, RASA1 / RFU, RB1 / Fold change vs veh, RB1 / RFU, PPFIA1 / Fold change vs veh, PPFIA1 / RFU, MAT2A / Fold change vs veh, MAT2A / RFU, CCT5 / Fold change vs veh, CCT5 / RFU, WDR92 / Fold change vs veh, WDR92 / RFU, CUX1 / Fold change vs veh, CUX1 / RFU, TTC7A / Fold change vs veh, TTC7A / RFU, TMEM135 / Fold change vs veh, TMEM135 / RFU, DEPTOR / Fold change vs veh, DEPTOR / RFU, CPM / Fold change vs veh, CPM / RFU, DNAJB6 / Fold change vs veh, DNAJB6 / RFU, CACNA2D3 / Fold change vs veh, CACNA2D3 / RFU, DTX4 / Fold change vs veh, DTX4 / RFU, TFCP2 / Fold change vs veh, TFCP2 / RFU, GMCL1 /// GMCL1P1 / Fold change vs veh, GMCL1 /// GMCL1P1 / RFU, AEBP2 / Fold change vs veh, AEBP2 / RFU, SNHG1 /// SNORD22 /// SNORD25 /// SNORD26 /// SNORD27 /// SNORD28 /// SNORD29 /// SNORD31 / Fold change vs veh, SNHG1 /// SNORD22 /// SNORD25 /// SNORD26 /// SNORD27 /// SNORD28 /// SNORD29 /// SNORD31 / Fold change (Aza/veh), C12orf56 (ProbeSet 11735607_a_at) / Fold change (ACY-1035/veh), C12orf56 (ProbeSet 11735607_a_at) / Fold change (Aza/veh), FGFR1OP (ProbeSet 11751329_s_at) / Fold change (ACY-1035/veh), FGFR1OP (ProbeSet 11751329_s_at) / Fold change (Aza/veh), VPS36 (ProbeSet 11739960_a_at) / Fold change (ACY-1035/veh), VPS36 (ProbeSet 11739960_a_at) / RFU SYPL1 (11715823_x_at) / Fold change /veh SYPL1 (11715823_x_at) / RFU IGFBP7 (11715501_s_at) / Fold change /veh IGFBP7 (11715501_s_at) / RFU REEP3 (11722064_at) / Fold change /veh REEP3 (11722064_at) / RFU IGLL1 (11728026_x_at) / Fold change /veh IGLL1 (11728026_x_at): dose or concentration left out as unconfirmed",
  "details": "ProbeSet 11743929_at; LIST B",
  "data": [
    {"smiles": "Nc1ccc(-c2cccs2)cc1NC(=O)c1ccc2c(c1)cc(C1CC1)n2CCN1CCOCC1", "note": "[ACY-1035]", "values": [
      {"measurement": "Fold change vs veh, UHRF1BP1L", "result": 0.90}
    ]}
  ]
}
